According to US20030091615A1, “Use of betaine to enhance exercise performance” (priority 2001, published 2003):

Tested on: male subjects
Experiment: Randomized placebo-controlled double blind exercise test: rehydration solution, 75 min treadmill run in 30° C. heat, then sprint to volitional exhaustion
Type: in vivo, human
Excerpt: Ten male subjects were selected to participate in four experimental tests, described below. The study design was a randomized placebo-controlled double blind test. These tests were identical, except that a different rehydration solution was consumed during each session. The rehydration solutions are:
(a) Non-nutritive KOOL-AID®;
(b) Non-nutritive KOOL-AID® and betaine (5 g/l);
(d) GATORADE® and betaine (5 g/l).
The order of treatment for each subject was randomized.
The following measurements were taken throughout each of the four experimental tests:
1) Hydration variables were measured each day, including urine specific gravity and color, body weight, plasma osmolity.
2) Blood variables were sampled during each trial, including, hematocrit, hemoglobin, osmolality, glucose, lactate.
3) Physiological variables were measured during each trial, such as time to exhaustion (duration of final sprint), heart rate, blood pressure, oxygen consumption, minute ventilation, mean weighted skin temperature, rectal temperature, whole body sweat rate.
4) Perceptual variables were recorded, such as rating of perceived exertion (Borg scale) during the exercise test, thermal stress during the exercise test, thirst sensation during the exercise test.
Each subject participated in four experimental tests, performed at the same time of day for each subject, using the same posture at each stage of testing. Experimental tests were randomized. Trials were conducted in an environmental chamber controlled at 30° C.
When they arrived at the test center at 7:00 a.m., the body weight was measured, a blood sample was taken and the specific gravity of the urine was measured. In general, the subjects were mildly dehydrated, losing approximately 1% body weight. […] Subsequently, thereto, they then entered an environmental chamber which was maintained at a temperature of 30° C. and they stood for thirty minutes to effect fluid and thermal equilibration.
Various measurements were taken of each subject including blood pressure, urine specific gravity, body weight, blood pressure, plasma, osmolality and a blood sample when in the environmental chamber prior to the test. Each then performed cycling and walking exercise for 60-90 minutes at 50-55% VO2max so that they each lost about 3% of body weight.
At about 9:30 a.m., they consumed one of the above fluids.
The total volume was ingested in five equal portions over 25 minutes. (This increased the body weight change to a −1.5% level). They each stood an additional twenty minutes to allow gastric emptying. Then they began a treadmill run for 75 minutes at 65% VO2max. They finished the exercise in the heat by a sprinting to volitional exhaustion at a treadmill pace that elicits 90% VO2max. At the conclusion, they stood in the environmental chamber for additional measurements during a 15 minute recovery period. They left the chamber, then ate a meal and drank fluids.
The test was repeated for each person three more times, except each time they ingested a different one of the fluids so that at the end of the test, each subject had ingested each one of the four fluids. Subjects were instructed to match the diet they ate before the initial experiment, during the three subsequent trials. […]

## C[N+](C)(C)CC(=O)[O-] [betaine, trimethylglycine]
GATORADE trials, betaine 5 g/l
  increased plasma lactate levels 15 minutes after the sprint: 17%
  increased plasma lactate levels immediately after the sprint: 10%
GATORADE trials, betaine 5 g/l vs GATORADE alone
  greater oxygen uptake (aerobic metabolism) while sprinting: 6%
KOOL-AID trials, betaine 5 g/l
  increased plasma lactate levels after the sprint: This effect was not seen
KOOL-AID trials, betaine 5 g/l vs KOOL-AID alone
  greater oxygen uptake (aerobic metabolism) while sprinting: This effect was not seen
